In US7235548B2, “Compounds and their use as positive AMPA receptor modulators” (NeuroSearch A/S, priority 1998, dated 2007):

Molecular target: ionotropic quisqualate (AMPA) receptors
Test: In vitro inhibition of 3H-AMPA binding
Details: 5 nM 3H-AMPA, rat cerebral cortex membranes, 30 min at 2° C.; read-out: IC50 (concentration of the test substance which inhibits the specific binding of 3H-AMPA by 50%)
Excerpt: L-glutamate (GLU) is the major excitatory neurotransmitter in the mammalian central nervous system. From electrophysiological- and binding studies, there appear to be at least three subtypes of GLU receptors, tentatively named N-methyl-D-aspartate (NMDA)-, quisqualate- and kainate receptors. GLU receptor subtypes sensitive to quisqualate and kainate as a group are often referred to as non-NMDA receptors. Receptor binding studies using the labelled agonists ^3H-AMPA (α-amino-3-hydroxy-5-methyl-4-isoxazolepropionic acid) (for quisqualate receptors) and ^3H-kainate (for kainate receptors) have shown different antagonist selectivities and regional distribution. AMPA has been known for several years to be a potent and selective agonist at the traditionally named quisqualate receptors. Activation of quisqualate receptors by AMPA is associated with Na^+ influx and K^+ efflux leading to depolarization.
The non-NMDA receptors have recently been reclassified to include the quisqualate activated metabotropic receptor type, linked to the inositol triphosphate and diacylglycerate metabolism. […] Selective activation of the metabotropic type has been claimed for trans-ACPD. Recently, the potent and competitive non-NMDA receptor antagonists CNQX and NBQX have been described, and CNQX have been reported not to block the effect of quisqualate at the metabotropic receptor subtype. ^3H-AMPA is a selective radioligand for labelling the ionotropic quisqualate (AMPA) receptors.
Preparations are performed at 0–4° C. unless otherwise indicated. Cerebral cortex from male Wistar rats (150–200 g) is homogenized for 5–10 sec in 20 ml Tris-HCl (30 mM, pH 7.4) using an Ultra-Turrax homogenizer. The suspension is centrifuged at 27,000×g for 15 min and the pellet is washed three times with buffer (centrifuged at 27,000×g for 10 min). The washed pellet is homogenized in 20 ml of buffer and incubated on a water bath (37° C.) for 30 min to remove endogenous glutamate and then centrifuged for 10 min at 27,000×g. The pellet is then homogenized in buffer and centrifuged at for 10 min at 27,000×g. The final pellet is resuspended in 30 ml buffer and the preparation is frozen and stored at −20° C.
The membrane preparation is thawed and centrifuged at 2° C. for 10 min at 27,000×g for 10 min. The pellet is washed twice with 20 ml 30 mM Tris-HCl containing 2.5 mM CaCl2, pH 7.4 using an Ultra-Turrax homogenizer and centrifuged for 10 min at 27,000×g. The final pellet is resuspended in 30 mM Tris-HCl containing 2.5 mM CaCl2 and 100 mM KSCN, pH 7.4 (100 ml per g of original tissue) and used for binding assays. Aliquots of 0.5 (0.2) ml are added to 25 (20) μl of test solution and 25(20) μl of ^3H-AMPA (5 nM, final concentration), mixed and incubated for 30 min at 2° C. Non-specific binding is determined using L-glutamate (0.6 mM, final concentration). After incubation the 550 μl samples are added 5 ml of ice-cold buffer and poured directly onto Whatman GF/C glass fibre filters under suction and immediately washed with 5 ml of ice-cold buffer. The 240 μl samples are filtered over glass fibre filter using a Skatron cell harvrester. The filters are washed with 3 ml ice-cold buffer. The amount of radioactivity on the filters is determined by conventional liquid scintillation counting. Specific binding is total binding minus non-specific binding.
The test value will be given as the IC50 (the concentration (μM) of the test substance which inhibits the specific binding of ^3H-AMPA by 50%)

Row | Structure (SMILES) | IC50 [µM]
1 | Cc1cc2c(cc1S(=O)(=O)N1CCOCC1)S(=O)(=O)NC(C1CCCCC1)N2 (stereo not shown) [Compound 115, 3-Cyclohexyl-6-methyl-7-morpholinosulfonyl-1,2,3,4-tetrahydro-1,2,4-benzothiadiazine-1,1-dioxide] | 7
2 | CN1CCN(S(=O)(=O)c2ccc3c(c2)S(=O)(=O)NC(C2CCCCC2)N3)CC1 (stereo not shown) [Compound 61, 3-Cyclohexyl-7-(4′-methylpiperazino)sulfonyl-1,2,3,4-tetrahydro-1,2,4-benzothiadiazine-1,1-dioxide] | 8.5
3 | O=S1(=O)NC(C2CCCCC2)Nc2ccc(S(=O)(=O)N3CCOCC3)cc21 (stereo not shown) [Compound 63, 3-Cyclohexyl-7-morpholinosulfonyl-1,2,3,4-tetrahydro-1,2,4-benzothiadiazine-1,1-dioxide] | 6
4 | Cc1cc2c(cc1S(=O)(=O)N1CCCCC1)S(=O)(=O)NC(C1CCCC1)N2 (stereo not shown) [Compound 114, 3-Cyclopentyl-6-methyl-7-piperidinosulfonyl-1,2,3,4-tetrahydro-1,2,4-benzothia-diazine-1,1-dioxide] | 33
